The text below walks through data of a melting point compilation (Tetko et al.; mined from patent text by program, amines drawn as free bases though some values may be those of a salt).

The structures appear in SMILES notation.

One may read the melting point as the temperature, or range, at which the solid turns liquid. `CCOC(=O)c1ncn2c1[C@@H]1CCCN1C(=O)c1cc(Cl)ccc1-2` gave a melting point of 242 to 244 °C.

On to `C=CCOc1ccc(CC(NC(O)OC(C)(C)C)C(=O)NC(C(=O)NC(C=C)C(=O)OC)C(C)C)cc1` (centres undefined), for which the melting point was in the range of 104 to 106 °C.

The molecule `CC(Cl)C(=O)c1ccc2c(c1)CCC(=O)N2` (centres undefined) gave a melting point of 205 to 206 °C.

In turn, `CCOC(=O)CC(=O)Nc1c(F)cccc1[N+](=O)[O-]` yielded a melting point of 99 to 102 °C.

`O=C(CCC(=O)N1CCCCC1c1ccccc1)c1ccc2c(c1)CCN(C(=O)C(F)(F)F)CC2` (centres undefined) showed a melting point of 132 to 133 °C.

With `COC(=O)c1cnc(Cl)cc1NN`, the melting point stood at 163 °C.

Regarding `CCCCNC(=S)Nc1onc2c1CCC2`, the melting point was 93 °C.

Take `COc1cc2c(-c3ccnc(NN)c3)c(CO)c(CO)cc2cc1OC1CCCC1`: the melting point was in the range of 127 to 130 °C.

In turn, `CCCCCS(=O)(=O)NC(=O)/C=C/c1ccc(OCCOC)cc1OCC1CC1` showed a melting point of 64.8 to 66.3 °C.

Molecule `CC(=O)NC[C@H]1CN(c2ccc(C(=O)c3cnc4ccc(C#N)cn34)cc2)C(=O)O1` displayed a melting point of 224 to 226 °C.

Turning to `N#Cc1c(-c2ccccc2)cc(-c2ccccc2)nc1N`, the melting point fell in the range of 170 to 174 °C.

`N#CCCCC#Cc1cc(F)c2ncc(C(=O)NCc3ccc(Cl)cc3)c(O)c2c1` registered a melting point of 208 to 210 °C.

Molecule `CCC(=O)c1cc2c(=O)n(NS(C)(=O)=O)c(=O)[nH]c2cc1C(F)(F)F` came in with a melting point of 234 to 236 °C.

`CCCc1c(C(=O)N(C)Cc2ccc3c(Br)c(OCc4nnn[nH]4)ccc3c2)cnn1-c1ccccc1` displayed a melting point of 75 to 85 °C.

For `Cc1cc(-c2nc3cccnn3c2-c2ccnc(NC(=O)CC(F)(F)F)c2)ccc1F`, the melting point lay within 220 to 221 °C.

Molecule `CCOCc1nc2c(N)nc(C)c(C)c2n1C1(OC)CCCCC1` yielded a melting point of 172 to 173 °C.

With `O=C(O)CNC(=O)c1cccc2c(-c3ccccc3)c([N+](=O)[O-])oc12`, the melting point was 123 to 126 °C.

Molecule `NC(=O)c1cc2c(Oc3ccc(N)cc3)cncc2s1` came in with a melting point above 250 °C.

Take `C=Cc1cc(O)cc2cc(-c3ccc(O)cc3)oc12`: the melting point is 182 to 184 °C.

`CC(=C(C#N)N=CN(C)C)N1CCCC1` registered a melting point of 49 to 53 °C.

As for `COc1cc2c(cc1C=NO)C(C)(C)CCC2(C)C`, the melting point lay within 182 to 183 °C.

Consider `Cn1ncc(N(CCCO)Cc2ccccc2)c(Cl)c1=O`, for which the melting point was 94 to 95 °C.

`C[C@H]1CCCN(C(=O)[C@@H]2Cc3ccccc3N2c2ccc(=O)n(C)n2)C1` returned a melting point of 231 to 233 °C.

With `CCC(CC)COc1ccc(S(=O)(=O)C2(C(=O)NO)CCN(Cc3ccccc3)CC2)cc1`, the melting point was found to be 114 °C.

`O=C(O)C(=O)Nc1cccc(-c2nnn[nH]2)c1` gave a melting point of 240 °C.

In the case of `CCCCCc1ccc(OC(=O)c2ccc(OCC)c(F)c2F)cc1`, the melting point stood at 61 °C.

In turn, `O=C(CCl)Nc1ccc(Cl)cc1C(=O)O` yielded a melting point of 188 °C.

In turn, `COc1ccc(-c2ccncc2)cc1-c1cccc([N+](=O)[O-])c1` came in with a melting point of 145 to 150 °C.

In the case of `COc1cc(-c2cnc3[nH]cc(C(=O)C4(C)CCCCC4)c3n2)cc(OC)c1OC`, the melting point is 246 to 247 °C.

`COc1ccc2c(c1)c(C)cn2CCCCCC(=O)O` returned a melting point of 134 to 137 °C.

`COc1ccc(C(=O)NNC(=O)c2ccccc2)cc1` displayed a melting point of 201 to 202 °C.

The molecule `CC(C)C[C@@H](CO)NC(=O)[C@H](Cc1c[nH]cn1)NC(=O)C(CNCCCc1ccccc1)Cc1cccc2ccccc12` (some centres undefined) registered a melting point of 72 to 76 °C.

With `NC1=NC(=O)N(C2CCCCC2)CC1Br` (centres undefined), the melting point was in the range of 152 to 156 °C.

Regarding `O=C(NCC1CCCCC1)c1c(Cl)ccc2nc(N3CC(NCCO)C3)ccc12`, the melting point was 150 to 151 °C.

As for `CCCCC1CC(=O)C2(C)CCC3=C4CCC(=O)C=C4CCC3C12` (centres undefined), the melting point is 159 to 161 °C.

In the case of `CCC(=O)C1c2cccc(O)c2C(=O)c2c(OC(C)=O)cccc21` (centres undefined), the melting point stood at 106 °C.

The molecule `CCOCc1nc2c(N)nc3ccccc3c2n1CC1(N)CCCCC1` showed a melting point of 166 to 168 °C.

In turn, `CCCC1(O)CCN(C)C(Cc2ccc(OC)cc2)C1(C)C` (centres undefined) registered a melting point of 85 to 102 °C.

For the molecule `Cc1noc(NS(=O)(=O)c2ccc(C(C)C)cc2)c1Br`, the melting point lay in the range of 130 to 133 °C.

`COCCOc1ccc(/C=C/C(=O)O)c(OCC2CCCCC2)c1` returned a melting point of 112 °C.

Take `O=C(c1ccccc1)c1ccccc1Nc1ncccc1[N+](=O)[O-]`: the melting point worked out at 85 °C.

Take `O=C1CC(Cl)=C(Cl)c2nc3cc(Cl)ccc3c(NCc3ccccc3)c21`: the melting point lay within 141 to 143 °C.

`O=C1CC(c2ccccc2)Cc2occ(C(F)(F)F)c21` (centres undefined) registered a melting point of 107 to 108 °C.

In the case of `COc1ccccc1C1=CC(=O)CCC1CC(=O)O` (centres undefined), the melting point lay in the range of 183 to 184 °C.

For `COc1ccc2c(c1)c(CC(C)NC(=O)C(F)(F)F)c1n2CCC1` (racemic), the melting point is 131 to 133 °C.

In the case of `C=CC[C@@H]1C[C@@H](COc2ccc(-c3ccc(C#N)cc3)cc2)N(CCCC2CCCCC2)C1=O`, the melting point lay in the range of 157 to 159 °C.

In the case of `N#Cc1ccc(NC(CNCC(=O)O)[N+](=O)[O-])cc1` (centres undefined), the melting point was 230 °C.

The molecule `COC1CC2(C)C(CCC3C4CC(C)=C(C(C)=O)C4(C)CC(=O)C32)CC1O` (centres undefined) came in with a melting point of 184 to 186 °C.

On to `COc1cc(Nc2c(C#N)cnc3c2sc2ccc([N+](=O)[O-])cc23)c(C)cc1Cl`, for which the melting point was above 305 °C.

`COCc1ccc2sc(C(=O)OC)c(C)c2c1` registered a melting point of 88 to 89 °C.

Take `N#Cc1ccc(-c2c[nH]nc2C(F)(F)F)cc1SCC1CCC1`: the melting point fell in the range of 102 to 103 °C.

`Cc1cc(=O)[nH]nc1-c1ccc2c(c1)CCC1(CCN(C3CCC3)CC1)O2` had a melting point of 270 to 272 °C.

As for `CCOC(=O)c1c(N2CCN(C(=O)c3cccs3)CC2)c2cccnc2n(Cc2ccccc2F)c1=O`, the melting point is 105 to 110 °C.

`CC(=O)O[C@H]1C[C@@H](n2cnc3c(Cl)ncnc32)[C@H](O)[C@@H]1O` (racemic) returned a melting point of 103 to 104 °C.

In turn, `CCCCc1nc2ccccn2c1Cc1ccc(-c2ccccc2C(=O)O)cc1` came in with a melting point of 196 °C.

Turning to `CC[C@H](C)[C@H](NS(=O)(=O)c1cccc2ccccc12)C(=O)N[C@@H](Cc1c[nH]c2ccccc12)C(=O)OC`, the melting point was 172 to 174 °C.

Turning to `CCOC(=O)c1sc2[nH]c(=O)c(=O)[nH]c2c1C`, the melting point is above 300 °C.

`O=C(OCc1ccccc1)c1ccc2cc(-c3ccc(CCCO)c(C45CC6CC(CC(C6)C4)C5)c3)ccc2c1` yielded a melting point of 176 °C.

As to `NC(=O)CCCCc1c[nH]c2ccccc12`, the melting point was 134 to 139 °C.

The molecule `COc1ccc(-c2nc3ccc(OC)cc3s2)cc1` displayed a melting point of 162 to 164 °C.

Molecule `CC1(C)CC(OC(=O)CCCCCCCCC(=O)OC2CC(C)(C)N(OC(=O)c3ccccc3)C(C)(C)C2)CC(C)(C)N1OC(=O)c1ccccc1` displayed a melting point of 92 to 100 °C.

In the case of `c1ccc(NCP(CNc2ccccc2)CNc2ccccc2)cc1`, the melting point was in the range of 87 to 88 °C.

For the molecule `NC(Cc1cc(Cl)c(Sc2ccc(O)c(Cc3ccc(=O)[nH]c3)c2)c(Cl)c1)C(=O)O` (centres undefined), the melting point is 261 to 264 °C.

Consider `COC(=O)CCc1ccc(-n2cc(C)n(-c3ccc(C(=N)N)cc3)c2=O)cc1`, for which the melting point lay within 95 to 100 °C.

The molecule `CCC(C)Cc1c(-c2ccc(C(N)=S)cc2Cl)c(C)nc2ncnn12` (centres undefined) displayed a melting point of 173 to 177 °C.

`CC(C)C[C@H](NC(=O)OCc1ccccc1)C(=O)N[C@@H](CCc1ccccc1)C(=O)CSCc1ccco1`: the melting point was 73 to 77 °C.

On to `OCC1OC(n2c(SCc3ccccc3)nc3cc(Cl)c(Cl)cc32)C(O)C1O` (centres undefined), for which the melting point was in the range of 196 to 198 °C.

The molecule `CC1(C)CC(=O)c2c(SCc3ccco3)sc(-c3cc[nH]n3)c2C1` gave a melting point of 198 to 200 °C.

The molecule `COc1cc(OC)c(-c2cccs2)cc1C=O` displayed a melting point of 125 to 126 °C.

`C=C(C(N)=O)N1CCC(c2ccc(OC(C)=O)c(OC)c2)C1c1ccccc1` (centres undefined) showed a melting point of 113 to 116 °C.

`O=C(c1cccn1N1C(=O)c2ccccc2C1=O)C1CC1`: the melting point is 150 to 152 °C.

`CCC1(CC)c2cc(-c3ccc(N(c4ccccc4)c4ccccc4)cc3)ccc2-c2ccc(-c3nc4ccccc4s3)cc21` came in with a melting point of 206 to 208 °C.

`O=C(O)c1cc(Cl)cc2c1NCCO2`: the melting point was in the range of 209 to 210 °C.

Consider `Cc1ccc([C@@H](O)C(F)(F)F)cc1`, for which the melting point came out at 44.2 °C.

`Cc1oc(-c2ccccc2)nc1COc1cccc(/C=C/CO)c1` registered a melting point of 118 to 119 °C.

`CCOn1c(CC)n[nH]c1=O` registered a melting point of 93 °C.

Consider `CC1(C)Oc2ccccc2-n2cnc(-c3noc(C4CC4)n3)c21`, for which the melting point fell in the range of 155 to 156 °C.

In the case of `COc1ccc(-c2nc3c(F)cccc3s2)cc1OC`, the melting point was 129 °C.

On to `Clc1ccc(C=NC(c2ccccc2)c2ccccc2)cc1`, for which the melting point fell in the range of 83 to 84 °C.

`Oc1cccc2cnsc12`: the melting point lay within 185 to 187 °C.

In the case of `O=C1N(C(c2ccccc2)c2ccccc2)c2ccccc2C1(O)c1cc2c(cc1O)OCCO2` (centres undefined), the melting point is 210 to 212 °C.

On to `NS(=O)(=O)c1ccc(OC2CCCCO2)s1` (centres undefined), for which the melting point lay in the range of 90 to 92 °C.

Regarding `Cc1cc(C(=O)Nc2ccc(SC(F)(F)F)c(Cl)c2)c(O)c(C23CC4CC(CC(C4)C2)C3)c1`, the melting point lay in the range of 205 to 206 °C.

`CCOC(=O)/C(=N\O[C@H]1CC[C@H](C)CC1)c1csc(N)n1` had a melting point of 133 to 135 °C.

As for `Cc1cc2c(C(=O)C3=C(O)C4CCC(C4)C3=O)ccc(S(C)(=O)=O)c2o1` (centres undefined), the melting point is 258 to 259 °C.

In turn, `CC1(C)CCC(C)(C)C(=O)C1=O` registered a melting point of 109 to 111 °C.

`O=C(O)c1ccc(CCCc2ccccc2Cc2ccccc2)cc1`: the melting point is 135 to 136 °C.

The molecule `CCCNC1CCc2nc(N)sc2C1` (centres undefined) had a melting point of 145 to 150 °C.

Consider `CCO[C@H]1C(C(=O)NCc2ccc(Cl)cc2)=C(C)OC(OCC)(OCC)[C@H]1C` (relative stereo), for which the melting point lay in the range of 97 to 100 °C.
